Entries after “also recorded” stand apart in the source; their conditions may differ.
Tests used:
[1] = tested on: Drosophila salivary gland polytene chromosome; experiment: Removal of DNA binding stains from polytene chromosome bands by xanthine wash; set-up: species or system Drosophila melagaster; conditions: for Re-staining following Xanthine Exposure / Staining before Xanthine Exposure: 1 mM stain, 30 minutes; for Degree of Stain Removal, Exposure to AM (100 mM) / Degree of Stain Removal, Exposure to CAF (100 mM): 15 minute wash, static
Procedure: In another implementation, giant polytene chromosomes were prepared by the squash technique from the salivary gland of Drosophila melagaster larva The salivary gland was placed on a microscope slide, squashed with a glass cover slide, fixed with acidic acid, rinsed with distilled water, and allowed to dry (kindly provided by Linda Chadwell, UTHSCSA-IBT). Three known DNA intercalators, ethidium bromide (98% purity, Aldrich Chemical Company, Milwaukee, Wis.), doxorubicin (98%, Sigma Chemnical Company, St. Louis, Mo.), and acridine orange plus the minor groove binding DNA stain Hoechst 33258 (98%, ACROS Chemical Company, NJ) were prepared in distilled water at a concentration of 1 mM (for chemical structures see FIG. 4-1, where acridine orange (3,6-bis [dimethylamino] acridine) is shown in Panel A, ethidium bromide is shown in Panel B, doxorubicin is shown in Panel C, Hoechst 33258 is shown in Panel D). The slides with prepared chromosomes were immersed in these stains for a period of 30 minutes, rinsed with distilled water, and dried at room temperature. Fluorescence microscopic analysis was conducted at λex 360 nm and photomicrographs were conducted on a Zeiss Model 63 Microscope with a xenon source fluorescent emitter. Photomicrographs were taken using Kodak Gold 35 mm ASA 1600 speed film noting the position of one individual chromosome on the slide. The stained slides were then subjected to 100 mM caffeine or 100 mM aminophylline under static conditions for a period of 15 minutes, rinsed with distilled water, then allowed to dry at room temperature. The presence of the same individual unstained chromosome in the field was confirmed by phase contrast microscopy. The chromosome was viewed again under fluorescence microscopy at […], and color recorded. Slides were re-stained by immersion in the 1 mM stain for a period of 30 minutes, rinsed with distilled water, and dried at room temperature, and the same individual chromosome was examined by fluorescence microscopy and the fluorescence color recorded.
FIG. 4-3 depicts three photomicrographs of the same Drosophila polytene chromosome: after staining with the DNA minor groove binder Hoechst 33258 dye (Panel A), after rinsing with CAF for 15 minutes (Panel B), and a phase contrast verification of the presence of the chromosome after the CAF rinse (Panel C). Table 4-4 summarizes the results from the experiments using caffeine (CAF) and aminophylline (AM) to remove the following DNA intercalators: doxorubicin, ethidium bromide, acridine orange, and the DNA minor groove binder Hoechst 33258 from their binding sites within polytene chromosomes. […] With all DNA intercalators, the staining of chromosome bands was intense before the xanthine rinses and was again intense following re-staining.

[2] = Optical absorbance titration of chlorophyllin with acridine orange; format: binding; conditions: AO:chlorophyllin ratio between 0.1 and 30
Text: The invention is not limited to the use of xanthines as interceptor molecules. For example, chlorophyllin and porphyrins may be used as a binding agent to intercalator molecules. FIG. 2-3 shoes the optical absorbance spectra titrating cholorphyllin with increasing concentraitons of acridine orange. The selected spectra denoting important transitions within the titration series are denoted by the bold lines. At AO:chlorophyllin ratio between 0.1 and 30, prevalent peaks occur at λabs of 415 nm for chlorophyllin, 475 nm, and 492 nm. These later peaks correspond to the prevalent absorbance peaks found at concentrations of AO at 10 μM and higher concentrations. […] Thus, other compounds may be used as interceptors such as, but not limited to porphyrins, purines, pyrimidines, polynucleotides and uric acid.

[3] = Absorbance binding spectra of doxorubicin titrated with caffeine or chlorophyllin; conditions: 10 μM doxorubicin
[4] = Optical titration (absorbance) of acridine orange with xanthines/purines, Kassoc from delta absorbance; format: binding; conditions: for Kassoc ± S.E.: binding affinity between acridine orange (10 μM) and compound, 5 mM HEPES pH 7.0, 25±1° C., 0 = no measurable association detected
Procedure: A red spectral shift in the optical adsorption maximum of AO upon the addition of a particular xanthine, indicates the possibility of a complex being formed between the two compounds. Spectral shifts can be measured by optical titrations.
Optical titrations (serial additions of various xanthines to a solution of AO) were performed on a Beckman DU-600 Scanning Spectrophotometer (Beckman Instrument Co., New York, N.Y.) using a 3 mL (1-cm light path) quartz cuvette containing 2.0 mL of a […]. The DU600 Spectrophotometer was blanked with 2 mL of a pH 7.0 buffered 5 mM HEPES solution over the full range of wavelengths to be scanned prior to sample analysis. This reduced the need to subtract the background absorbance from the HEPES buffer. Optical absorbance scans were performed over a wavelength range preferably from 400 nm to 550 nm. […] The 10 μM AO solution was scanned before the start of each titration series to quantitatively monitor any changes in the absorbance spectrum. Optical absorbance experiments were performed using aliquots varying in volume from 1:L to 20:L taken from prepared xanthine stock solutions (5 mM to 50 mM) and titrated into the cuvette containing 2.0 mL of the 10 μM AO solution. The solution in the cuvette was then thoroughly mixed by 10 seconds of shaking before scanning. All titrations were performed at room temperature (25±1° C.). The absorbance spectra were measured in 1 nm intervals and stored in digital form. Digitized scan data was converted to a Lotus Spreadsheet file (*.wk1) using a conversion program supplied by the manufacturer (Beckman Instruments Inc.) then imported into a Microsoft Excel 97™ Workbook file (*.xls) and saved in this format for further analysis. Spectral data for each titration was combined and expressed in graphic form (Excel™) (X-axis=wavelength in nm; Y-axis=optical absorbance) for each xanthine titrated with AO. […] Adjusted absorption values were plotted and compared to spectra from non-complexed AO. This allowed for the visualization of an expected spectral shift that occurs when AO forms a complex with a xanthine.
The association constant, Kassoc, may be used to analyze the binding ability of modified xanthines to DNA intercalators. The association constant may be calculated based upon a differential shift in the absorbance spectrum. When the presence of the xanthine caused a spectral shift, a difference absorbance plot or delta plot was obtained. Delta plots were constructed by subtracting the adjusted absorption spectrum of AO in the presence of the xanthine from the initial spectrum of AO alone at each wavelength and for each aliquot of the titration. This procedure allowed for the creation of difference absorption values or delta absorption values. Delta absorption values obtained in this manner (Y-axis=delta absorption) were plotted against wavelength in nm (X-axis). The appearance of a single isobestic point was indicative of only two species present in solution, AO, and an AO complex. Graphic representation allowed for the selection of a wavelength with the maximum sensitivity for determining the association constant. This wavelength was characterized by the greatest positive response in delta absorbance values observed upon addition of each aliquot of xanthine to the AO solution. The AO-xanthine association or binding constant was determined by the following equilibrium expression: I+X≡IX EQUATION 1: […]
Where I represents the intercalator (AO), X represents the interceptor molecule (xanthine), and IX represents the AO-xanthine complex, respectively.

[5] = tested on: chicken erythrocyte nuclear chromatin; experiment: Blocking of acridine orange intercalation into chicken erythrocyte nuclear chromatin, fluorescence microscopy; set-up: key: 0: no blocking effect; 1: slight blocking; 2: moderate blocking; 3: almost total blocking (very slight green fluorescence detectable); 4: complete blockage (no green fluorescence detectable); conditions: 10 μM AO
Procedure: Microscope slides coated with chicken erythrocyte were stained with 10 μM AO at three separate areas on the microscope slide as described above. Slides were exposed to […] different xanthies at four different molar ratios for three different periods of time. The xanthines, theophylline, caffeine, 1,3,7,9-tetramethyl uric acid, and aminophylline, were prepared with 10 μM AO at molar ratios of 50:1, 500:1, 2500:1, 5000:1 xanthine to AO in distilled water. Microscope slides coated with chicken erythrocytes were exposed to a mixture of xanthine/AO at each molar ratio for periods of 10 min, 1 min, and 10 seconds under static (non-agitated) conditions. […] Following exposure to the xanthine/AO or to the DNA/AO solutions, the slides were rinsed in distilled water, allowed to dry at room temperature, examined by fluorescence microscopy, and the color of the nuclei recorded. Results were recorded as follows: 0=no blocking effect; 1=slight blocking; 2=moderate blocking; 3=almost total blocking (very slight green fluorescence detectable); 4=complete blockage (no green fluorescence detectable).
In the implementation shown in Table 4-2, the relative intensity of the green fluorescent color ([…]) utilizing a red blocking filter (≧600 nm) was used as the indicator of the intensity of staining. The molar ratio is expressed as the ratio of xanthine concentration to 10 μM AO. Results were recorded as follows: 0=no blocking effect; 1=slight blocking; 2=moderate blocking; 3=almost total blocking (very slight green fluorescence detectable); 4=complete blockage (no green fluorescence detectable). *Kassoc values for the xanthines are taken from Table 2-1 and the Kassoc values for DNA were taken from Table 3-2.

[6] = tested on: chicken erythrocyte nuclear chromatin; experiment: Removal of acridine orange from stained chicken erythrocyte nuclear chromatin by xanthine rinse, fluorescence microscopy; conditions: for Nuclear color, Stain: before xanthine rinse; for Nuclear color, Re-stain: re-stained after xanthine rinse; for Nuclear color, After Rinse: xanthine rinse 50 mM, 1 hour, static
Procedure: Experiments were conducted to determine whether xanthines with known binding affinities to AO could compete with nuclear DNA for binding to AO and, therefore, be able to remove AO from its intercalation position within nuclear chromatin. Fluorescence microscopy was used to observe the fluorescent color produced by the AO-DNA complex following the staining of chicken erythrocyte nuclear chromatin with AO at both 5 μM and 5 mM.
Microscope slides smeared with chicken erythrocytes were stained with either 5 μM or 5 mM AO for a period of 30 minutes followed by three 10 second rinses in distilled water before drying at room temperature. Slides were then examined by fluorescence microscopy using a, Zeiss Model 63 Microscope with a xenon source fluorescent emitter. In some instances, a blocking filter was used to filter out fluorescence emission in the red and higher wavelengths. Photomicrographs were taken with Kodak Gold 35 mm ASA 1600 speed film, developed and color prints made. Comparative photomicrographs were taken at the same magnification and at the same exposure time. Selected photomicrographs were digitally scanned (Hewitt-Packard, Model 4L Scanner, Palo Alto, Calif.) and stored on 100 MB ZIP cartridges.
Slides were again examined by fluorescence microscopy and fluorescence color of the nuclei recorded. Slides were again stained with 5 mM AO then re-examined by fluorescence microscopy and fluorescence color of the nuclei recorded.
In the example shown in Table 4-3, the chicken erythrocytes were smeared and dried on a microscope slide prior to exposure to the AO solution for 30 minutes followed by water rinses to remove excess AO. Following drying, each slide was observed under fluorescence microscopy then placed in one of the xanthine solutions (50 ml volume) for 1 hour under static conditions, rinsed with water, then dried prior to being observed by fluorescence microscopy without a red blocking filter. Finally, each slide was restained following the initial staining procedures and again observed by fluorescence microscopy. Kassoc values are taken from Table 2-1 and are expressed in M^−1.

CN1CCN(c2ccc3[nH]c(-c4ccc5[nH]c(-c6ccc(O)cc6)nc5c4)nc3c2)CC1 [Hoechst 33258]
Re-staining following Xanthine Exposure [1]: Complete | Staining before Xanthine Exposure [1]: Banding | Degree of Stain Removal, Exposure to AM (100 mM) [1]: apparently complete removal | Degree of Stain Removal, Exposure to CAF (100 mM) [1]: apparently complete removal

chlorophyllin
complexation with acridine orange [2]: complexes with acridine orange | binding to doxorubicin [3]: doxorubicin can be bound to chlorophyllin

Cn1c(=O)c2c(n(C)c1=O)n(C)c(=O)n2C [1,3,7,9-tetramethyl-8-oxy xanthine]
Kassoc ([4]; Table 2-2, Kassoc value with acridine orange (this report)): 552 M⁻¹ | Kassoc ([4]; Table 4-2, in parentheses under compound, taken from Table 2-1): (552) M^−1 | Kassoc ([4]; Table 4-3, taken from Table 2-1): 552 M⁻¹ | Kassoc ± S.E. [4]: 551.5 ± 9.0 M⁻¹ | Kassoc ± S.E. ([4]; listed as 1,3,7,9-tetramethyl uric acid): 552 M⁻¹ | blocking of AO intercalation ([5]; Xanthine/AO molar ratio 5000:1, exposure 10 min): 2 | blocking of AO intercalation ([5]; molar ratio 50:1, exposure 10 sec): 0 | blocking of AO intercalation ([5]; molar ratio 50:1, exposure 1 min): 0 | blocking of AO intercalation ([5]; molar ratio 50:1, exposure 10 min): 0 | blocking of AO intercalation ([5]; molar ratio 500:1, exposure 10 sec): 0 | blocking of AO intercalation ([5]; molar ratio 500:1, exposure 1 min): 0 | blocking of AO intercalation ([5]; molar ratio 500:1, exposure 10 min): 0 | blocking of AO intercalation ([5]; molar ratio 2500:1, exposure 10 sec): 0 | blocking of AO intercalation ([5]; molar ratio 2500:1, exposure 1 min): 1 | blocking of AO intercalation ([5]; molar ratio 2500:1, exposure 10 min): 1 | blocking of AO intercalation ([5]; molar ratio 5000:1, exposure 10 sec): 2 | blocking of AO intercalation ([5]; molar ratio 5000:1, exposure 1 min): 2 | effect of xanthine rinse on fluorescence of AO stained nuclear chromatin ([6]; 50 mM xanthine rinse): removal of most, if not all, green and red color | Nuclear color, Stain ([6]; AO [5 μM] 30 minutes): Green | Nuclear color, Re-stain ([6]; AO [5 μM]): Green | Nuclear color, After Rinse ([6]; AO [5 μM]): None | Nuclear color, Stain ([6]; AO [5 mM] 30 minutes): Red | Nuclear color, Re-stain ([6]; AO [5 mM]): Red | Nuclear color, After Rinse ([6]; AO [5 mM]): None

COc1cccc2c1C(=O)c1c(O)c3c(c(O)c1C2=O)C[C@@](O)(C(=O)CO)C[C@@H]3O[C@H]1C[C@H](N)[C@H](O)[C@H](C)O1 [Doxorubicin, doxorubicin]
Re-staining following Xanthine Exposure [1]: Complete | Staining before Xanthine Exposure [1]: Banding | Degree of Stain Removal, Exposure to AM (100 mM) [1]: Moderate | Degree of Stain Removal, Exposure to CAF (100 mM) [1]: completely removed; also recorded: Complete | Degree of Stain Removal, Exposure to AM (100 mM) ([1]; listed as doxorubicin): only moderately removed

From patent publication US7662767B2, “Polynucleotide intercalator interceptors and inhibitors” (Materials Evolution and Development USA, Inc., priority 2000, dated 2010)
